Reference: patent publication US11560385B2, “Proteasome activity enhancing compounds” (Proteostasis Therapeutics, Inc., priority 2018, dated 2023)

These compounds were tested against USP14 (Homo sapiens (Human), UniProt P54578) (assay: Usp14 inhibition assay (Example 57B, B-series compounds)). Settings: IC50 class; average value from a minimum of two experimental determinations.
Assay type: biochemical
Source text: Example 57B: Usp14 Inhibition Assay
The IC50 values in the Table below represent the average value from a minimum of two experimental determinations.

USP14, sequence (P54578 whole entry, looked up): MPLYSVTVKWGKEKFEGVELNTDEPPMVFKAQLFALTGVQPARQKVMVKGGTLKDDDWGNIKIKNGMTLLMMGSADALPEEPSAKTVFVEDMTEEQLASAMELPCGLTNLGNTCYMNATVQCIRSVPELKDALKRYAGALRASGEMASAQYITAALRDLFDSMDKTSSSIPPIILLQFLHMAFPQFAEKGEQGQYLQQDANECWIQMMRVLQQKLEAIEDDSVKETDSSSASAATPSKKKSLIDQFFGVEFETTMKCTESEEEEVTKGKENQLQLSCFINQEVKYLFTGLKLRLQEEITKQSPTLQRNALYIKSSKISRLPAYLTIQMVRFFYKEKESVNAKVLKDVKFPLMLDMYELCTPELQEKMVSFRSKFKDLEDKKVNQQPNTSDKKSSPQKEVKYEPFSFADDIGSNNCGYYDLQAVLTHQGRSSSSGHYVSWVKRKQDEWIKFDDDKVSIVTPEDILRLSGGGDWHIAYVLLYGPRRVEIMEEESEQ

| Structure (SMILES) | IC50 [nM] |
| --- | --- |
| Cc1nc(Cc2c(Cl)c(C(=O)CN3C4CCC3[C@@H](O)C4)c(C)n2-c2ccc(C#N)cc2)cs1 (stereo partly drawn) [Example 128B] | < 50 |
| Cc1cc(C(=O)CN2C3CC4CC2CC(C3)O4)c(C)n1-c1ccc(C#N)cc1 [Example 84B, 4-(3-(2-((1r,3r)-2-Oxa-6-azaadamantan-6-yl)acetyl)-2,5-dimethyl-1H-pyrrol-1-yl)benzonitrile] | 50 to 500 |
| Cc1cc(C(=O)CN2[C@@H]3CC[C@@H]2CC(O)C3)c(C)n1-c1ccc(C#N)cc1 (stereo partly drawn) [Example 67B, 4-(3-(2-((1R,3s,5S)-3-hydroxy-8-azabicyclo[3.2.1]octan-8-yl)acetyl)-2,5-dimethyl-1H-pyrrol-1-yl)benzonitrile] | 50 to 500 |
| Cc1c(C(=O)CN2[C@@H]3CC[C@H]2[C@@H](O)C3)cc(CCCCC2COC2)n1-c1ccc(C#N)cc1 (racemic) [Example 23B, (±)-4-(3-(2-((1S,2S,4R)-2-Hydroxy-7-azabicyclo[2.2.1]heptan-7-yl)acetyl)-2-methyl-5-(4-(oxetan-3-yl)butyl)-1H-pyrrol-1-yl)benzonitrile] | < 50 |
| Cc1c(C(=O)CN2C3CCC2CC3)cc(CC2COC2)n1-c1ccc(C#N)cc1 [Example 54B, 4-(3-(2-(7-Azabicyclo[2.2.1]heptan-7-yl)acetyl)-2-methyl-5-(oxetan-3-ylmethyl)-1H-pyrrol-1-yl)benzonitrile] | < 50 |
| Cc1c(C(=O)CN2C3CCC2[C@@H](O)C3)cc(CC(F)(F)F)n1-c1ccc(C#N)cc1 (mixture of isomers) [Example 115B, (±)-4-(3-(2-((2R)-2-Hydroxy-7-azabicyclo[2.2.1]heptan-7-yl)acetyl)-2-methyl-5-(2,2,2-trifluoroethyl)-1H-pyrrol-1-yl)benzonitrile] | 50 to 500 |
| Cc1c(C(=O)CN2[C@@H]3CC[C@H]2[C@@H](O)C3)cc(CC2CCC2)n1-c1ccc(C#N)cc1 (racemic) [Example 133B, (±)-4-(5-(Cyclobutylmethyl)-3-(2-((1R,2R,4S)-2-hydroxy-7-azabicyclo[2.2.1]heptan-7-yl)acetyl)-2-methyl-1H-pyrrol-1-yl)benzonitrile] | < 50 |
| Cc1c(C(=O)CN2[C@@H]3CC[C@H]2[C@@H](O)C3)cc(C2CC(F)(F)C2)n1-c1ccc(C#N)cc1 (racemic) [Example 131B, (±)-4-(5-(3,3-Difluorocyclobutyl)-3-(2-((1R,2R,4S)-2-hydroxy-7-azabicyclo[2.2.1]heptan-7-yl)acetyl)-2-methyl-1H-pyrrol-1-yl)benzonitrile] | 50 to 500 |
| Cc1c(C(=O)CN2C3CCC2[C@@H](O)C3)cc(C[C@H]2C[C@@H](C#N)C2)n1-c1ccc(C#N)cc1 (mixture of isomers) [Example 4B, (±)-4-(5-4(1s,3S)-3-cyanocyclobutyl)methyl)-3-(2-((1R,2R,4S)-2-hydroxy-7-azabicyclo[2.2.1]heptan-7-yl)acetyl)-2-methyl-1H-pyrrol-1-yl)benzonitrile] | < 50 |
| Cc1nc(-c2cc(C(=O)CN3[C@@H]4CC[C@H]3[C@@H](O)C4)c(C)n2-c2ccc(C#N)cc2)cs1 (racemic) [Example 144B, (±)-4-(3-(2-((1R,2R,4S)-2-Hydroxy-7-azabicyclo[2.2.1]heptan-7-yl)acetyl)-2-methyl-5-(2-methylthiazol-4-yl)-1H-pyrrol-1-yl)benzonitrile] | 50 to 500 |
| Cc1c(C(=O)CN2C3CCC2[C@@H](O)C3)cc(Br)n1-c1ccc(C#N)cc1 (mixture of isomers) [Example 119B, (±)-4-(5-Bromo-3-(2-((2R)-2-hydroxy-7-azabicyclo[2.2.1]heptan-7-yl)acetyl)-2-methyl-1H-pyrrol-1-yl)benzonitrile] | 50 to 500 |
| Cc1c(C#N)c(C(=O)CN2C3CCC2[C@@H](O)C3)c(C)n1-c1ccc(C#N)cc1 (mixture of isomers) [Example 33B, (±)-1-(4-Cyanophenyl)-4-(2-((2R)-2-hydroxy-7-azabicyclo[2.2.1]heptan-7-yl)acetyl)-2,5-dimethyl-1H-pyrrole-3-carbonitrile] | > 500 |
| Cc1cc(C(=O)CN2[C@@H]3CC[C@@H]2CC(O)(C(F)(F)F)C3)c(C)n1-c1ccc(C#N)cc1 (stereo partly drawn) [Example 74B, 4-(3-(2-((1R,3r,5S)-3-Hydroxy-3-(trifluoromethyl)-8-azabicyclo[3.2.1]octan-8-yl)acetyl)-2,5-dimethyl-1H-pyrrol-1-yl)benzonitrile] | > 500 |
| Cc1cc(C(=O)CN2[C@@H]3CC[C@@H]2CC(C)(O)C3)c(C)n1-c1ccc(C#N)cc1 (stereo partly drawn) [Example 68B, 4-(3-(2-((1R,3r,5S)-3-Hydroxy-3-methyl-8-azabicyclo[3.2.1]octan-8-yl)acetyl)-2,5-dimethyl-1H-pyrrol-1-yl)benzonitrile] | 50 to 500 |
| Cc1c(F)c(C(=O)CN2C3CCC2[C@@H](O)C3)c(C)n1-c1ccc(C#N)cc1 (mixture of isomers) [Example 78B, (±)-4-(3-Fluoro-4-(2-((2R)-2-hydroxy-7-azabicyclo[2.2.1]heptan-7-yl)acetyl)-2,5-dimethyl-1H-pyrrol-1-yl)benzonitrile] | 50 to 500 |
| Cc1cc(C(=O)CN2[C@@H]3CC[C@H]2[C@H]2CCO[C@H]23)c(C)n1-c1ccc(C#N)cc1 (racemic) [Example 139B, (±)-4-(2,5-Dimethyl-3-(2-((3aR,4S,7R,7aR)-octahydro-4,7-epiminobenzofuran-8-yl)acetyl)-1H-pyrrol-1-yl)benzonitrile] | > 500 |
| Cc1c(C(=O)CN2C3CCC2[C@@H](O)C3)cc(Cl)n1-c1ccc(C#N)cc1 (mixture of isomers) [Example 96B, (±)-4-(5-Chloro-3-(2-((2R)-2-hydroxy-7-azabicyclo[2.2.1]heptan-7-yl)acetyl)-2-methyl-1H-pyrrol-1-yl)benzonitrile] | 50 to 500 |
| Cc1c(C#N)c(C(=O)CN2C3CCC2[C@@H](O)C3)c(C)n1-c1ccc(C#N)cc1 (mixture of isomers) [Example 95B, (±)-1-(4-Cyanophenyl)-4-(2-((2R)-2-hydroxy-7-azabicyclo[2.2.1]heptan-7-yl)acetyl)-2,5-dimethyl-1H-pyrrole-3-carbonitrile] | > 500 |
| Cc1c(C(=O)CN2[C@H]3CC[C@@H]2[C@@H](O)C3)cc(CC23CC(C2)C3)n1-c1ccc(C#N)cc1 (racemic) [Example 158B, (±)-4-(5-(Bicyclo[1.1.1]pentan-1-ylmethyl)-3-(2-((1R,2S,4S)-2-hydroxy-7-azabicyclo[2.2.1]heptan-7-yl)acetyl)-2-methyl-1H-pyrrol-1-yl)benzonitrile] | > 500 |
| Cc1c(C(=O)CN2C3CCC2[C@@H](O)C3)cc(/C=C/CC2CC(C)(C)OC2=O)n1-c1ccc(C#N)cc1 (mixture of isomers) [Example 52B, (±)-4-(5-((E)-3-(5,5-Dimethyl-2-oxotetrahydrofuran-3-yl)prop-1-en-1-yl)-3-(2-((1S,2S,4R)-2-hydroxy-7-azabicyclo[2.2.1]heptan-7-yl)acetyl)-2-methyl-1H-pyrrol-1-yl)benzonitrile] | < 50 |
| Cc1cc(C(=O)CN2[C@@H]3CC[C@H]2[C@@H](C(F)(F)F)C3)c(C)n1-c1ccc(C#N)cc1 (racemic) [Example 102B, (±)-4-(2,5-Dimethyl-3-(2-((1R,2R,4S)-2-(trifluoromethyl)-7-azabicyclo[2.2.1]heptan-7-yl)acetyl)-1H-pyrrol-1-yl)benzonitrile] | > 500 |
| Cc1c(C(=O)CN2C3CCC2CC3)c(C)n(-c2ccc(C#N)cc2)c1-c1ccc(C#N)cc1 [Example 16B, 4,4′-(4-(2-(7-Azabicyclo[2.2.1]heptan-7-yl)acetyl)-3,5-dimethyl-1H-pyrrole-1,2-diyl)dibenzonitrile] | > 500 |
| Cc1cc(C(=O)CN2[C@@H]3CC[C@H]2[C@@](C)(O)C3)c(C)n1-c1ccc(C#N)cc1 (racemic) [Example 71B, (±)-4-(3-(2-((1R,2R,4S)-2-Hydroxy-2-methyl-7-azabicyclo[2.2.1]heptan-7-yl)acetyl)-2,5-dimethyl-1H-pyrrol-1-yl)benzonitrile] | > 500 |
| Cc1c(C(=O)CN2C3CCC2C(O)C3)cc([C@H](C)C2CCC2)n1-c1ccc(C#N)cc1 (stereo in doubt) [Example 151B, 4-(5-((R)-1-Cyclobutylethyl)-3-(2-((2R)-2-hydroxy-7-azabicyclo[2.2.1]heptan-7-yl)acetyl)-2-methyl-1H-pyrrol-1-yl)benzonitrile] | > 500 |
| Cc1c(C(=O)CN2C3CCC2[C@@H](O)C3)cc(C#N)n1-c1ccc(C#N)cc1 (mixture of isomers) [Example 47B, (±)-1-(4-Cyanophenyl)-4-(2-((2R)-2-hydroxy-7-azabicyclo[2.2.1]heptan-7-yl)acetyl)-5-methyl-1H-pyrrole-2-carbonitrile] | < 50 |
| Cc1c(C(=O)CN2[C@@H]3CC[C@H]2[C@@H](O)C3)cc(-c2nccs2)n1-c1ccc(C#N)cc1 (racemic) [Example 146B, (±)-4-(3-(2-((1R,2R,4S)-2-Hydroxy-7-azabicyclo[2.2.1]heptan-7-yl)acetyl)-2-methyl-5-(thiazol-2-yl)-1H-pyrrol-1-yl)benzonitrile] | > 500 |
| Cc1c(C(=O)CN2C3CCC2[C@@H](O)C3)cc(CC2COC2)n1-c1ccc(C#N)cc1 (mixture of isomers) [Example 39B, (±)-4-(3-(2-((2R)-2-Hydroxy-7-azabicyclo[2.2.1]heptan-7-yl)acetyl)-2-methyl-5-(oxetan-3-ylmethyl)-1H-pyrrol-1-yl)benzonitrile] | < 50 |
| Cc1c(C(=O)CN2C3CCC2CC3)cc(CCCCS(C)(=O)=O)n1-c1ccc(C#N)cc1 [Example 30B, 4-(3-(2-(7-Azabicyclo[2.2.1]heptan-7-yl)acetyl)-2-methyl-5-(4-(methylsulfonyl)butyl)-1H-pyrrol-1-yl)benzonitrile] | < 50 |
| Cc1cc(C(=O)CN2C3CCC2[C@@H](O)C3)c(C)n1-c1ccc(C#N)cc1F (mixture of isomers) [Example 91B, (±)-3-Fluoro-4-(3-(2-((2R)-2-hydroxy-7-azabicyclo[2.2.1]heptan-7-yl)acetyl)-2,5-dimethyl-1H-pyrrol-1-yl)benzonitrile] | 50 to 500 |
| Cc1cc(C(=O)CN2C3CC4CC2C(C3)O4)c(C)n1-c1ccc(C#N)cc1 (racemic) [Example 92B, (±)-4-(3-(2-((2R,3aS,5R,6aS)-Hexahydro-4H-2,5-methanofuro[3,2-b]pyrrol-4-yl)acetyl)-2,5-dimethyl-1H-pyrrol-1-yl)benzonitrile] | 50 to 500 |
